Our source for the IC50 values is BindingDB's records for PubMed 40188441 (Shanghai Jiao Tong University).

What is called IC50 is the concentration that gives 50% inhibition.

Some results are limits rather than exact numbers.

This assay is described as follows: Inhibition of human STING in human THP-1 Dual cells assessed as secreted luciferase reporter of interferon stimulated gene (ISG) measured after 24 hrs incubation by QUANTI-Luc detection assay. (A reporter such as luciferase makes a cellular process visible.)
For `O=C(Nc1ccc2c(c1)OC(F)(F)O2)Nc1c[nH]c2ccccc12`, the IC50 was found to be 0.018 µM.

For the molecule `Cc1ccc2c(NC(=O)N3CCc4[nH]c5c(Cl)c(Cl)ccc5c4C3)c[nH]c2c1`, the 50% inhibitory concentration (IC50) was above 10 µM. For `O=C(Nc1ccc2c(c1)OC(F)(F)O2)Nc1c[nH]c2ccc(C#CC(F)(F)F)cc12` the value was above 10 µM.

In the case of `O=C(Nc1c[nH]c2ccc(Br)cc12)N1CCc2oc3c(Cl)c(Cl)ccc3c2C1`, the IC50 was determined as 0.353 µM. In the case of `O=C(Nc1cccc2c1OC(F)(F)O2)Nc1c[nH]c2ccccc12`, the IC50 was determined as 1.83 µM. As for `CC(=O)OCC#Cc1ccc2[nH]cc(NC(=O)Nc3ccc4c(c3)OC(F)(F)O4)c2c1`, the IC50 is 0.489 µM. Take `Fc1cc2[nH]cc(Nc3nc4cc(C5CCCC5)ccc4[nH]3)c2cc1F`: the IC50 is 0.216 µM.

Consider `COc1ccc2[nH]cc(NC(=O)N3CCc4[nH]c5c(Cl)c(Cl)ccc5c4C3)c2c1`, for which the IC50 was found to be 2.38 µM. Consider `O=C(Nc1ccc2c(c1)OCO2)Nc1c[nH]c2ccc(F)cc12`, for which the IC50 came to 3.47 µM. Regarding `O=C(Nc1c[nH]c2ccc(Br)cc12)N1CCc2[nH]c3c(Cl)c(Cl)ccc3c2C1`, the IC50 was determined as 0.791 µM. Take `CN1CCc2cc(NC(=O)Nc3c[nH]c4ccc(F)cc34)ccc21`: the IC50 came out at 1.18 µM. For `O=C(Nc1ccc2c(c1)COB2O)Nc1c[nH]c2ccc(F)cc12` the value was above 10 µM; for `Cn1cc(C#Cc2ccc3[nH]cc(NC(=O)Nc4ccc5c(c4)OC(F)(F)O5)c3c2)cn1`, 0.264 µM; for `O=C(Nc1c[nH]c2cc(F)ccc12)N1CCc2[nH]c3c(Cl)c(Cl)ccc3c2C1`, 3.18 µM. Regarding `O=C(Nc1ccc2c(c1)OC(F)(F)O2)Nc1c[nH]c2ccc(-c3cn(CCO)nn3)cc12`, the IC50 is above 10 µM.

For `O=C(Nc1c[nH]c2cc(Cl)ccc12)N1CCc2[nH]c3c(Cl)c(Cl)ccc3c2C1`, the IC50 turned out to be 3.31 µM. Take `COc1ccc2c(NC(=O)N3CCc4[nH]c5c(Cl)c(Cl)ccc5c4C3)c[nH]c2c1`: the IC50 is above 10 µM. For `CCOP(=O)(Cc1ccc2[nH]cc(NC(=O)Nc3ccc4c(c3)OC(F)(F)O4)c2c1)OCC`, the IC50 was above 10 µM. For `O=C(Nc1ccc2c(c1)OC(F)(F)O2)Nc1c[nH]c2ccc(C#CC3CC3)cc12` the value was 0.258 µM; for `Fc1cnc2[nH]cc(Nc3nc4cc(C5CCCC5)ccc4[nH]3)c2c1`, 0.044 µM. With `COC(=O)/C=C/c1ccc2[nH]cc(NC(=O)Nc3ccc4c(c3)OC(F)(F)O4)c2c1`, the IC50 turned out to be 3.65 µM. For `O=C(Nc1c[nH]c2ccc(F)cc12)N1CCc2[nH]c3c(Cl)c(Cl)ccc3c2C1` the value was 2.4 µM; for `O=C(Nc1ccc2c(c1)OC(F)(F)C(F)(F)O2)Nc1c[nH]c2ccc(F)cc12`, 0.11 µM; for `O=C(Nc1ccc2c(c1)OC(F)(F)O2)Nc1c[nH]c2ccc(C#CCO)cc12`, 2.19 µM. For the molecule `O=C(Nc1ccc2c(c1)OC(F)(F)O2)Nc1c[nH]c2ccc(Cl)cc12`, the IC50 was 0.066 µM.

For the molecule `O=C(Nc1ccc2c(c1)OCCO2)Nc1c[nH]c2ccc(F)cc12`, the IC50 was determined as 1.35 µM. Consider `O=C(Nc1c[nH]c2ccccc12)N1CCc2[nH]c3c(Cl)c(Cl)cc(Br)c3c2C1`, for which the IC50 came to 2.05 µM. In the case of `O=C(Nc1c[nH]c2ccc(F)cc12)N1CCc2oc3c(Cl)c(Cl)ccc3c2C1`, the IC50 came to 0.382 µM.

For `O=C(Nc1c[nH]c2ccccc12)N1CCc2[nH]c3c(Cl)c(Cl)ccc3c2C1`, the IC50 amounted to 2.12 µM. For the molecule `O=C(Nc1ccc2c(c1)CCN2)Nc1c[nH]c2ccc(F)cc12`, the IC50 is above 10 µM. With `C=CC(=O)Nc1ccc2[nH]cc(NC(=O)Nc3ccc4c(c3)OC(F)(F)O4)c2c1`, the IC50 is above 10 µM.

In the case of `N#CC/C=C/c1ccc2[nH]cc(NC(=O)Nc3ccc4c(c3)OC(F)(F)O4)c2c1`, the IC50 was determined as 0.116 µM. Take `Fc1ccc2[nH]cc(Nc3nc4cc(C5CCCC5)ccc4[nH]3)c2c1`: the IC50 was found to be 0.043 µM. For `O=C(Nc1ccc2c(c1)OC(F)(F)O2)Nc1c[nH]c2ccc(-c3cn(CCN4CCOCC4)nn3)cc12` the value was above 10 µM; for `O=C(Nc1ccc2c(c1)NCC2)Nc1c[nH]c2ccc(F)cc12`, 1.22 µM; for `O=C(Nc1ccc2c(c1)OC(F)(F)O2)Nc1c[nH]c2ccc(Br)cc12`, 0.071 µM. Turning to `C#Cc1ccc2[nH]cc(NC(=O)Nc3ccc4c(c3)OC(F)(F)O4)c2c1`, the IC50 was found to be 0.119 µM. Regarding `COCCOCCn1cc(-c2ccc3[nH]cc(NC(=O)Nc4ccc5c(c4)OC(F)(F)O5)c3c2)nn1`, the IC50 stood at 2.49 µM. As to `N#C/C=C/c1ccc2[nH]cc(NC(=O)Nc3ccc4c(c3)OC(F)(F)O4)c2c1`, the IC50 is above 10 µM. With `Fc1ccc2[nH]cc(Nc3nc4cc5c(cc4[nH]3)OC(F)(F)O5)c2c1`, the IC50 was 0.192 µM.

Regarding `Cn1ccc(-c2cc(Cl)c(Cl)c3[nH]c4c(c23)CN(C(=O)Nc2c[nH]c3ccccc23)CC4)n1`, the IC50 is above 10 µM. For `Fc1ccc2[nH]cc(Nc3nc4cc(C(F)(C(F)(F)F)C(F)(F)F)ccc4[nH]3)c2c1`, the IC50 came out at 0.269 µM.
